Source: US20100298348A1, “Method of Decreasing Ubiquitylated Protein Levels” (priority 2009, published 2010)

Assays:
[1] = test system: rodent models of learning and memory; conditions: cited from earlier work
[2] = test system: acetylcholine (ACh) and dopamine; test: Acetylcholine and dopamine release and extracellular concentrations
ubiquitylated proteins = test: Anti-ubiquitin Western blot of C57/B6 wildtype mouse brain; assay type: in vivo; conditions: C57/B6 wildtype mice, 5 mg/kg/day in drinking water, 2 months
Method: Brain extracts from 2 month-old C57/B6 wildtype mice that had been treated with ST101 at 5/mg/kg/day in drinking water over 2 months were analyzed in Western blots using an anti-ubiquitin antibody (Dako no. Z0448).

Neuro2a cells = test: Aβ production by Neuro2a cells, ELISA of culture medium; assay type: cell-based, murine; conditions: 24 hours treatment, vs control
Method: Neuro2a is a murine neuroblastoma cell line that is known to produce amyloid peptides Aβ1-40 and Aβ1-42 in amounts measurable by ELISA assays. These forms of Aβ have been correlated with the pathology in AD brain and Aβ1-42 in particular is postulated to have the ability to block a7 nicotinic receptors and to produce direct neurotoxic effects. Neuro2a cells were treated for 24 hours with ST101 added to the tissue culture medium. Tissue culture medium was collected and analyzed by ELISA for the presence of Aβ.

huntingtin = test: Western blot of pS13 huntingtin in 3xTg-AD mouse brain; assay type: in vivo; conditions: 3xTg-AD mice 12 months old, 5 mg/kg/day, 2 months; in the majority of cases
Method: In a first pilot experiment to explore the effect of ST101 on proteins that accumulate in neurodegenerative diseases other than AD, brain extracts from ST101-treated 3xTg-AD mice (S) and control mice (C) mice were analyzed by Western blotting with an antibody directed against huntingtin, specifically against a phospho-epitope around serine 13 (pS13 huntingtin). These extracts are from the same mice as those used in Examples 15 and 16.

sAPP-beta = test: Western blot of sAPP-beta in 3xTg-AD mouse brain; assay type: in vivo; conditions: 3xTg-AD mice ~14.5 months old, 5 mg/kg/day in drinking water, 2 months as printed
Method: FIG. 10B describes a reduction of fragment C99. C99 is created by BACE cleavage which leads to release of soluble APP, specifically sAPP-beta. […] The Western blot was obtained using an sAPP-beta specific antibody in brain extracts from ST101 treated 3×TG-AD mice (S) versus control mice (C). Animals were approximately 14.5 months old at sacrifice after 2 months of treatment with ST101 at 5 mg/kg/day in drinking water.

O=C1N=C2C=CC=CN2C12Cc1ccccc1C2 [ST101, spiro(imidazo[1,2-a]pyridin-2(3H)-one-3,2′-indan)]
memory deficits induced by chemical amnesic agents ([1]; methamphetamine, MK-801, scopolamine): attenuates
age-impaired memory ([1]; rodent models): significantly improves
nicotine-stimulated release of acetylcholine (ACh) [2]: potentiates
extracellular ACh concentrations ([2]; cerebral cortex): increases
extracellular concentration of ACh ([2]; hippocampus): increases
extracellular concentration of dopamine ([2]; hippocampus): increases
ubiquitylated proteins (ubiquitylated proteins): modest reduction
Aβ1-40 concentration in cell culture medium (Neuro2a cells): without major effects
Aβ1-42 concentration in cell culture medium (Neuro2a cells): significantly reduced
huntingtin protein levels (pS13 huntingtin) (huntingtin): significantly reduced
sAPP-beta (sAPP-beta): concomitant reduction
